# Several values for one entry are separate records, joined by “and”; a condition that tells them apart may be missing. Identical values can stand only once.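 96-well plates; 48 h exposure; 5 concentrations. Endpoints by linear interpolation between flanking doses. Not reached: highest tested concentration assigned. GI50 marks 50% less growth. TGI denotes the concentration required for complete inhibition of growth.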 Numbered stars: 1 amine (or outer) side, 2 acyl side, 3 side chain; on linkers, the order of the positions; unused ones are H or OH. *1 amine or outer side, *2 acyl side, *3 side chain or, on linkers, in order; H or OH if unused. Bridge positions count the residues as written; N and C are the ends. Where a SMILES comes first, the peptide text is derived from it. Square brackets hold non-standard residues; d marks the D form. Peptide text beside a SMILES is read from it. I, II: the chains in the order shown. [ ]: non-standard residue; d: D form. The star is where a group is joined. Actinocin(9to1) = Cc1c2oc3c(C)ccc(C(=O)[*:1])c3nc-2c(C(=O)[*:2])c(N)c1=O; X11 = C/C=C/CC(C)C(O)[C@H](N[*:1])C(=O)[*:2]; aThr = C[C@H](O)[C@H](N)C(=O)O; NMeV = CN[C@H](C(=O)O)C(C)C; Decanoyl = CCCCCCCCCC(=O)*; Leu(ol) = CC(C)C[C@H](N)CO; Aib = CC(C)(N)C(=O)O; Sar = CNCC(=O)O
# Test system: MDA-MB-468 breast
# Assay: NCI tumour cell line growth inhibition, 48 h
SMILES,GI50,TGI
O=C(/C=C/C=C/c1ccc2c(c1)OCO2)N/N=C\c1ccc(O)cc1O,1660 nM,5730 nM
CN1CCN(CCC=C2c3ccccc3Sc3ccc(S(=O)(=O)N(C)C)cc32)CC1,1380 nM and 1530 nM,2970 nM and 4260 nM
CCCCCCCCCCCCCCCCCC[S+](C)CC (centres undefined),527 nM,2660 nM
COc1ccc(/C=C\c2cc(OC)c(OC)c(OC)c2)c(NS(=O)(=O)c2ccc(F)cc2)c1O,69.2 nM,–
CN1CCN(Cc2ccc(NC(=O)c3cncc(C#Cc4cnc5ccc(N6CCOCC6)nn45)c3)cc2C(F)(F)F)CC1,73.5 nM,165 nM
CC(=O)ON=C1C=CC(=C(C#N)c2ccccc2)C=C1,420 nM,12500 nM
Nc1ncnc2c1ccn2-c1cccc(NC(=O)c2ccc(N3CCOCC3)c(C(F)(F)F)c2)c1,2130 nM,7070 nM
CN1CCN(Cc2ccc(NC(=O)c3cncc(C#Cc4cnc5ccc(OCCCS(C)(=O)=O)nn45)c3)cc2C(F)(F)F)CC1,684 nM,1680 nM
CN(C)CCCCNc1ccc(NCCCCN(C)C)c2c1C(=O)c1c(O)ccc(O)c1C2=O,13700 nM,26500 nM
COC(=O)c1c2c(c(C)[n+]([O-])c1C)C(=O)C(NCc1ccc(O)cc1)=CC2=O,402 nM,1740 nM
C#CCNC(=O)CC[C@@H](C)[C@H]1CC[C@H]2[C@@H]3CC[C@@H]4CC(=O)CC[C@]4(C)[C@H]3CC[C@]12C,13800 nM,45400 nM
Cc1cc(-c2cc(OC(=O)c3ccccc3)ccc2Cl)cc2nnc(Nc3ccc(OCCN4CCCC4)cc3)nc12,1320 nM,2910 nM
C/C=C/CC(C)C(O)[C@H](NC(=O)[C@@H]1CCCN1C(=O)C(C)(C)NC(=O)CCCCCCCCC)C(=O)NC(C)(C)C(=O)N[C@@H](CCC(N)=O)C(=O)N[C@H](CCC(N)=O)C(=O)NC(C)(C)C(=O)NC(C)(C)C(=O)N[C@@H](CCC(N)=O)C(=O)N[C@H](CC(C)C)C(=O)N[C@H](CO)CC(C)C (stereo partly drawn) (Decanoyl-[Aib]P[X11][Aib]Q[dQ][Aib][Aib]Q[dL][Leu(ol)]),1490 nM,2980 nM
COc1cc(C)[nH]c(=O)c1CNC(=O)c1c(C)n([C@H](C)C2CCN(CC(F)(F)F)CC2)c2ccccc12,24900 nM,> 100000 nM
CCN(CC)CC(O)c1cc(-c2ccc(Cl)cc2)nc2c(C)c(Cl)ccc12 (centres undefined),1890 nM,3420 nM
COc1cc(C2CC(c3cccc(Nc4ccnc5cc(Cl)ccc45)c3)=NN2c2ccccc2)cc(OC)c1OC (centres undefined),20100 nM,> 100000 nM
C[C@]12CC[C@H]3[C@@H](CC[C@]4(O)C[C@@H](O[C@@H]5O[C@H](CO)[C@@H](O[C@@H]6OC[C@@H](O)[C@H](O)[C@H]6O)[C@H](O)[C@H]5O)CC[C@]34C=O)[C@@]1(O)CC[C@@H]2C1=CC(=O)OC1,10000 nM,32300 nM
CN1CCN(Cc2ccc(NC(=O)c3cncc(C#Cc4cnc5ccc(N)nn45)c3)cc2C(F)(F)F)CC1,852 nM,3240 nM
"Cc1c2oc3c(C)ccc(C(=O)N[C@@H]4C(=O)N[C@H](C(C)C)C(=O)N5CCC[C@H]5C(=O)N(C)CC(=O)N(C)[C@@H](C(C)C)C(=O)O[C@H]4C)c3nc-2c(C(=O)N[C@@H]2C(=O)N[C@H](C(C)C)C(=O)N3CCC[C@H]3C(=O)N(C)CC(=O)N(C)[C@@H](C(C)C)C(=O)O[C@H]2C)c(N)c1=O (I: [aThr][dV]P[Sar][NMeV] / II: [aThr][dV]P[Sar][NMeV]; ester I:1-I:C, II:1-II:C; linker I:N-II:N via Actinocin(9to1))",–,48.5 nM and 15.7 nM
NC1(C(=O)N[C@@H](CCO)c2ccc(Cl)cc2)CCN(c2ncnc3[nH]ccc23)CC1,128 nM and 162 nM,1170 nM and 2210 nM
Nc1nc(N)c2c(n1)CCC(S(=O)(=O)c1ccc3ccccc3c1)C2 (centres undefined),2250 nM,33000 nM
CO/C(=C1/NC(=O)C(Cc2ccc(O)c(Br)c2)N(C)C(=O)C(C)NC(=O)CCC/C=C(\C)CCC(C)OC1=O)c1ccccc1 (centres undefined),21.7 nM,–
COCCn1c2c([n+](Cc3cnccn3)c1C)C(=O)c1ccccc1C2=O,< 10 nM,14.1 nM
Cc1cnc(-c2ccc(-c3ccc(NC(=O)Nc4c(F)cc(F)cc4F)cc3F)c3c2C(=O)NC3)[nH]1,1480 nM,3860 nM
C=CC(=O)N1CCC[C@@H](n2nc(-c3ccc(Oc4ccccc4)cc3)c3c(N)ncnc32)C1,67.4 nM,1240 nM
CC(=O)Nc1cc2c3c(cccc3c1)-c1ccccc1-2,37400 nM,> 100000 nM

# — PubChem BioAssay (NCI)
